Measurements: patent publication US20140378408A1, “NUCLEOSIDE 5'-PHOSPHOROTHIOATE ANALOGUES AND USES THEREOF” (BAR-ILAN UNIVERSITY, an Israeli University, priority 2012, published 2014)

Tests used:
[1] = target: T1, human P2Y2-R (Homo sapiens, UniProt P41231); experiment: [Ca^2+]i response of 1321N1 astrocytoma cells expressing P2Y2-R GFP; type: cell-based; conditions: for EC50: agonist, read-out: EC50 at the P2Y2 receptor; for activity at the P2Y2 receptor: isomer A of APPCCl2P-α-S at 100 μM
T1 construct: expressed in transfected cells; host or cells: 1321N1 astrocytoma cells
T1 sequence (P41231 whole entry): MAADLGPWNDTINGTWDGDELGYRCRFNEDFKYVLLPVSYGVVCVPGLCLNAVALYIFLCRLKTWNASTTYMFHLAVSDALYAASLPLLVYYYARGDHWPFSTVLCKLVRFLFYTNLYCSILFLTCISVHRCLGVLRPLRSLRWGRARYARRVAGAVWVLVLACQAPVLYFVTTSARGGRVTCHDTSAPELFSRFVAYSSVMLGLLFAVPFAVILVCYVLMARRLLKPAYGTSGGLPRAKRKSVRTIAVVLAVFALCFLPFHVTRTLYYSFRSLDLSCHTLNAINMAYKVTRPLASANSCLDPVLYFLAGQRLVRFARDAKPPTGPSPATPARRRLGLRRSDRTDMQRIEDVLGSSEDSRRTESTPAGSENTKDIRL
Protocol: GFP constructs of human P2Y2-R, P2Y1-R and P2Y11-R were stably expressed in 1321N1 astrocytoma cells, which lack endogenous expression of P2X- and P2Y-receptors. The respective cDNA of the receptor gene was cloned into a pEGFPN1 vector and after transfection, using FuGENE 6 Transfection Reagent (Roche Molecular Biochemicals, Mannheim, Germany), cells were selected with 0.5 mg/ml G418 (geneticine; Merck Chemicals, Darmstadt, Germany) and grown in DMEM supplemented with 10% serum (FCS), 100 U/ml penicillin and 100 U/ml streptomycin at 37° C. and 5% CO2. The expression and cell membrane localization of the respective P2Y receptors was confirmed through the analysis of the GFP fluorescence. The functionality of the expressed GFP-labeled receptor in cells was verified by recording a change of [Ca^2+]i after stimulation with the appropriate receptor agonist.
1321N1 astrocytoma cells transfected with the respective plasmid for P2Y-R-GFP expression plated on coverslips (22 mm diameter) and grown to approximately 80% density, were incubated with 2 μM fura 2/AM and 0.02% pluronic acid in Na-HBS buffer (Hepes buffered saline: 145 mM NaCl, 5.4 mM KCl, 1.8 mM CaCl2, 1 mM MgCl2, 25 mM glucose, 20 mM Hepes/Tris pH 7.4) for 30 min at 37° C. The cells were superfused (1 ml/min, 37° C.) with different concentrations of nucleotide in Na-HBS buffer. The nucleotide-induced change of [Ca^2+] was monitored by detecting the fluorescence intensities with excitations at 340 nm and 380 nm. Only GFP-labeled cells were analyzed. Microsoft Excel (Microsoft Corp., Redmond, Wash., USA) and SigmaPlot (SPSS Inc., Chicago, Ill., USA) were used to derive the concentration-response curves and EC50 values from the average response amplitudes obtained in at least three independent experiments (Ecke et al., 2006; Ecke et al., 2008). Only cells with a clear GFP-signal and with the typical calcium response kinetics upon agonist pulse application were included in the data analysis. The nucleotide induced change of [Ca^2+]i was monitored by detecting the respective emission intensity of fura 2/AM at 510 nm with 340 nm and 380 nm excitations (Ubl et al., 1998). The average maximal amplitude of the responses and the respective standard errors were calculated from ratio of the fura 2/AM. The GFP-tagged P2Y receptors are suitable for pharmacological and physiological studies, as previously reported (Tulapurkar et al., 2004; Tulapurkar et al., 2006; Zylberg et al., 2007).

[2] = target: T2, human NPP1 (Homo sapiens, UniProt P22413); experiment: Inhibition of NPP1 activity; type: biochemical; conditions: pNP-TMP 5·10^−5 M
T2 construct: made in house; host or cells: COS-7 cells (transfected; protein extract / cell lysate)
T2 sequence (P22413 1-925): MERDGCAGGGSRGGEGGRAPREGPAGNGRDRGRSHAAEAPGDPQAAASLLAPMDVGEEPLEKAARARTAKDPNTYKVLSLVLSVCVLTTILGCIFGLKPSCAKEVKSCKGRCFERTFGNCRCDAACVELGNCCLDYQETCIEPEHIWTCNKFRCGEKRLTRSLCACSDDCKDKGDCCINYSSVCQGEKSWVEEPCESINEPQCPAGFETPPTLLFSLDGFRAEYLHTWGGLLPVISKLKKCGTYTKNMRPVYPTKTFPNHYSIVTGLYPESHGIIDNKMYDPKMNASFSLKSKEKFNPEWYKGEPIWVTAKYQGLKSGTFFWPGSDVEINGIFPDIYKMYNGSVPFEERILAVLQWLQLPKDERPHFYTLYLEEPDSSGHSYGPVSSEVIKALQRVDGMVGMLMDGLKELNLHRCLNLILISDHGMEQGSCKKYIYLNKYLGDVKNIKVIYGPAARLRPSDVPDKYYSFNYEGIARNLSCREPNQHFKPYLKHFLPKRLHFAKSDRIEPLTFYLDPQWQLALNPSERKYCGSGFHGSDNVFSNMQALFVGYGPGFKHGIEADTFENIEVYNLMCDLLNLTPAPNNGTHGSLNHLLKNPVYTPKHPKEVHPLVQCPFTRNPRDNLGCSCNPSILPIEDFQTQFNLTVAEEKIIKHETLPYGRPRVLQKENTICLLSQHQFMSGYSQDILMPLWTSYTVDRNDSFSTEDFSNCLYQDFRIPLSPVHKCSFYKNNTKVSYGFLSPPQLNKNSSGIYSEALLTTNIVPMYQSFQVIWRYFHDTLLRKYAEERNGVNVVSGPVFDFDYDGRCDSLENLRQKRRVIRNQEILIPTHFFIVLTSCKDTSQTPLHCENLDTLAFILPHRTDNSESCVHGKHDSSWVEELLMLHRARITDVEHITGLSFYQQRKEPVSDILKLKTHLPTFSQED

Row | SMILES | EC50 [1] | activity at the P2Y2 receptor [1] | IC50 [2] | further results
1 | Nc1ncnc2c1ncn2[C@@H]1O[C@H](COP(O)(=S)OP(=O)(O)C(Cl)(Cl)P(=O)(O)O)[C@@H](O)[C@H]1O (single isomer, unassigned) [APPCCl2P-α-S, adenosine 5′-[Pα-thio]-β,γ-(dichloromethylene)triphosphate] | > 10 µM | – | – | –
2 | Nc1ncnc2c1ncn2[C@@H]1O[C@H](COP(O)(=S)OP(=O)(O)C(Cl)(Cl)P(=O)(O)O)[C@@H](O)[C@H]1O (single isomer, unassigned; isomer a) [APPCCl2P-α-S (isomer A), adenosine 5′-[Pα-thio]-β,γ-(dichloromethylene)triphosphate] | – | no activity as agonist | – | –
3 | Nc1ncnc2c1ncn2[C@@H]1O[C@H](COP(O)(=S)OP(=O)(O)CP(=O)(O)O)[C@@H](O)[C@H]1O (single isomer, unassigned; isomer a) [APPCP-α-S (isomer A), adenosine 5′-[Pα-thio]-β,γ-methylenetriphosphate] | – | – | – | IC50 ([2]; listed as APPCP-α-S A): 16.3 ± 0.04 µM
4 | Nc1ncnc2c1ncn2[C@@H]1O[C@H](COP(O)(=S)OP(=O)(O)C(Cl)(Cl)P(=O)(O)O)[C@@H](O)[C@H]1O (single isomer, unassigned; isomer b) [APPCCl2P-α-S (isomer B), adenosine 5′-[Pα-thio]-β,γ-(dichloromethylene)triphosphate] | – | – | 31.2 ± 0.1 µM | –
5 | Nc1ncnc2c1ncn2[C@@H]1O[C@H](COP(O)(=S)OP(=O)(O)CP(=O)(O)O)[C@@H](O)[C@H]1O (single isomer, unassigned; isomer b) [APPCP-α-S (isomer B), adenosine 5′-[Pα-thio]-β,γ-methylenetriphosphate] | – | – | – | IC50 ([2]; listed as APPCP-α-S B): 18.7 ± 0.03 µM
6 | Nc1ncnc2c1ncn2[C@@H]1O[C@H](COP(=O)(O)CP(=O)(O)OP(O)(O)=S)[C@@H](O)[C@H]1O [APCPP-γ-S, adenosine 5′-[Pγ-thio]-α,β-methylenetriphosphate] | > 10 µM | neither agonist nor antagonist | 0.39 ± 0.001 µM | –
